Test results: the supplement of paper PMC5844555

Assays:
Experiment in all cases: 3' UTR reporter interaction score (median-centred robust z-score of log2 firefly/Renilla activity); higher = less repression of the 3' UTR reporter
Settings in all cases: HEK293T; 48 h
BRCA2 = tested on: BRCA2
In short: (§1)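 HEK293T cells (10,000/well, 96-well plates) were co-transfected using DharmaFECT Duo with 100 ng firefly luc2P reporter carrying the gene's 3' UTR, 20 ng Renilla pRL-TK control and 2.5 pmol miRNA mimic. Dual-luciferase activities were read 48 h post-transfection. The interaction score is the log-transformed firefly/Renilla ratio as a per-plate robust z-score (median, median absolute deviation), median-centred per miRNA and averaged over at least two independent screens; more negative indicates interaction.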

EZH2 = tested on: EZH2
In short: as §1

FBXW7 = tested on: FBXW7
In short: as §1

HRAS = tested on: HRAS
In short: as §1

MYB = tested on: MYB
In short: as §1

MYCN = tested on: MYCN
In short: as §1

MYC = tested on: MYC
In short: as §1

MYT1L = tested on: MYT1L
In short: as §1

NOTCH1 = tested on: NOTCH1
In short: as §1

PHF6 = tested on: PHF6
In short: as §1

PHOX2B = tested on: PHOX2B
In short: as §1

RB1 = tested on: RB1
In short: as §1

TP53 = tested on: TP53
In short: as §1

ZEB2 = tested on: ZEB2
In short: as §1

Sequence	3' UTR reporter interaction score (BRCA2)	3' UTR reporter interaction score (EZH2)	3' UTR reporter interaction score (FBXW7)	3' UTR reporter interaction score (HRAS)	3' UTR reporter interaction score (MYB)	3' UTR reporter interaction score (MYCN)	3' UTR reporter interaction score (MYC)	3' UTR reporter interaction score (MYT1L)	3' UTR reporter interaction score (NOTCH1)	3' UTR reporter interaction score (PHF6)	3' UTR reporter interaction score (PHOX2B)	3' UTR reporter interaction score (RB1)	3' UTR reporter interaction score (TP53)	3' UTR reporter interaction score (ZEB2)
AGGAAUGUUCCUUCUUUGCC	-1.4	-0.309	-2.13	0.683	-0.0682	-0.0855	0.63	-0.098	-0.469	-0.446	2.32	0.276	-0.812	2.6
AGGACCUGCGGGACAAGAUUCUU	0.115	-0.425	-0.188	-0.0697	0.35	-0.207	-0.0464	-0.0205	0.243	-0.476	1.33	0.102	-0.45	0.526
AGGAGGCAGCGCUCUCAGGAC	-0.741	-1.61	-0.582	-0.534	0.571	0.868	-1.13	2.05	-2.44	1.36	0.109	0.463	-0.457	2.03
AGGCACGGUGUCAGCAGGC	-0.203	0.629	0.393	-0.153	0.171	-0.274	0.509	0.478	0.0125	0.283	0.32	0.0845	-0.839	-0.659
AGGCAGUGUAGUUAGCUGAUUGC	0.647	1.87	-0.242	1.1	-4.27	-5.02	-1.05	0.754	-3.48	-2.27	-1.02	0.138	0.285	-0.539
AGGCAGUGUAUUGUUAGCUGGC	1.59	-0.179	0.842	0.697	-4.72	-5.92	-2.42	0.156	-4.34	-4.67	0.369	-1.56	1.19	0.15
AGGCGGGGCGCCGCGGGACCGC	-0.123	-1.53	-0.475	-0.439	-0.412	-0.386	-0.234	-0.425	0.236	1.42	-0.317	0.467	-0.353	0.258
AGGCUGCGGAAUUCAGGAC	-1.7	-1.27	0.871	-1.18	0.132	0.119	-0.912	1.31	0.93	1.89	-0.147	0.76	-1.78	2.21
AGGGAUCGCGGGCGGGUGGCGGCCU	0.916	-0.298	-0.971	-0.484	0.376	-0.927	-0.321	-0.194	0.433	2.46	-1.25	-0.0484	0.628	-0.0578
